The source of these data is patent US7070928B2, “Evolving new molecular function” (President and Fellows of Harvard College, priority 2001, dated 2006).

One test deals with Taq DNA polymerase (Thermus aquaticus, UniProt P19821). The test is described as follows: acceptance of modified nucleotide triphosphates in PCR. Particulars: 30 PCR cycles, pUC19 template DNA, three natural deoxynucleotide triphosphates, gel electrophoresis (FIG. 51). The format is biochemical. The text has this: The ability of thermostable DNA polymerases suitable for PCR amplification to accept these modified nucleotide triphosphates containing metal-binding functionality. Non-natural nucleotide triphosphates were purified by ion exchange HPLC and added to PCR reactions containing Taq DNA polymerase, three natural deoxynucleotide triphosphates, pUC19 template DNA, and two DNA primers. Primers were chosen to generate PCR products ranging from 50 to 200 base pairs in length. Control PCR reactions contained the four natural deoxynucleotide triphosphates and no non-natural nucleotides. PCR reactions were analyzed by agarose or denaturing acrylamide gel electrophoresis. […] Previous findings on the acceptance of 7 by Taq DNA polymerase are in conflict, with-both non-acceptance (K. Sakthivel et al. Angew. Chem. Int. Ed. Engl. 1998, 37, 2872–2875) and acceptance (S. E. Lee et al. Nucleic Acids Res. 2001, 29, 1565–73) reported.
Chain of Taq DNA polymerase (P19821 whole entry): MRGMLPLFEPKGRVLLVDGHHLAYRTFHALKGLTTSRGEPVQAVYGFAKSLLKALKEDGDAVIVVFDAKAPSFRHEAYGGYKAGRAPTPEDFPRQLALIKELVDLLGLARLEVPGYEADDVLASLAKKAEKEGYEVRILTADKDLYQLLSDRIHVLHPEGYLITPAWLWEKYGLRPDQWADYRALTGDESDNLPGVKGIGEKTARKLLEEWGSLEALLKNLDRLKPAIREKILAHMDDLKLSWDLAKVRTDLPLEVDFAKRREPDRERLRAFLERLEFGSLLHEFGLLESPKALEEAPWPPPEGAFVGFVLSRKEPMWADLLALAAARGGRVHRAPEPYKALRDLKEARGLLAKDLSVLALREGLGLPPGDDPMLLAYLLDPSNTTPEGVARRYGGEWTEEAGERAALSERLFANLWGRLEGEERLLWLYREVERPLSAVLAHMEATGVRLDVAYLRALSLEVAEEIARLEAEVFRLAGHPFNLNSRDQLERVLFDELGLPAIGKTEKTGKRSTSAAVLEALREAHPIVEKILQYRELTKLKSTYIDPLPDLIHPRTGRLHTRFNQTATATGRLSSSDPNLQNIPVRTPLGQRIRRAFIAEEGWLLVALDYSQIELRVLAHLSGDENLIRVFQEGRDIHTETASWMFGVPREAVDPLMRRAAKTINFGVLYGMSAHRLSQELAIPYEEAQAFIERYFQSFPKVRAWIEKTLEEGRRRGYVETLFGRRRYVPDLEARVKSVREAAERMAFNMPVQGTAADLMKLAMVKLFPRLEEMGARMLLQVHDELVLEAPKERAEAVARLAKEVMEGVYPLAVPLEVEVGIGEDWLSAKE

Another test concerns the target αvβ3 integrin receptor (Homo sapiens, UniProt P05106+P06756). Particulars: benchmark αvβ3 integrin antagonists; cited from earlier work.

Chain of αvβ3 integrin receptor (P06756 31-889 limits assumed): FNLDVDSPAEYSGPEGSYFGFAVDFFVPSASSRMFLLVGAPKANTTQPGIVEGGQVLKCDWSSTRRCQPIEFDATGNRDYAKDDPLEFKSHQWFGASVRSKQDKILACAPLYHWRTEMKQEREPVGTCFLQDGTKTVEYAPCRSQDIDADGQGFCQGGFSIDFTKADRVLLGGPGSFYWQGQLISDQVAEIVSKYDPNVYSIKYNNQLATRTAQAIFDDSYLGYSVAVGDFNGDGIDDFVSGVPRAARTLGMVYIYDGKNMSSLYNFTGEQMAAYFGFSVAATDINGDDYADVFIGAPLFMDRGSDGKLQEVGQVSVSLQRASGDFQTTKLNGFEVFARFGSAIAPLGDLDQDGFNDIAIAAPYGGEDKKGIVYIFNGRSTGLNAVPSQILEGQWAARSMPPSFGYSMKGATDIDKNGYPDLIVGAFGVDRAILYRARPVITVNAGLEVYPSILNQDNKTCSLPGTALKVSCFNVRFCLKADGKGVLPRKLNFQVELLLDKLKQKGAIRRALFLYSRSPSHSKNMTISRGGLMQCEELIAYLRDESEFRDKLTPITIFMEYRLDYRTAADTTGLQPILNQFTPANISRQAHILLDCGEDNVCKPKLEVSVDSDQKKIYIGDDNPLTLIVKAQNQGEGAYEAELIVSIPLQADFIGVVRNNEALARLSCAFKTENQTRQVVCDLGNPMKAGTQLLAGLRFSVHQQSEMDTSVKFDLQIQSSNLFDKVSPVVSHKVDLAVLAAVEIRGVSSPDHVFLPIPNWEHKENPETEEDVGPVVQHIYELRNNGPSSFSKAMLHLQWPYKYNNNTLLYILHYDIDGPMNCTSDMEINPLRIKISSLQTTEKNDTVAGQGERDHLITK
Chain of αvβ3 integrin receptor (P06756 891-1048 partner limits assumed): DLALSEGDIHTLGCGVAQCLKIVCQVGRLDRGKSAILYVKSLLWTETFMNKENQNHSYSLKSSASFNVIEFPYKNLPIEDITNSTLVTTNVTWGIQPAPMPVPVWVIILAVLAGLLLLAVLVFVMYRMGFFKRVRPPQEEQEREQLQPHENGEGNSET
Chain of αvβ3 integrin receptor (P05106 27-788): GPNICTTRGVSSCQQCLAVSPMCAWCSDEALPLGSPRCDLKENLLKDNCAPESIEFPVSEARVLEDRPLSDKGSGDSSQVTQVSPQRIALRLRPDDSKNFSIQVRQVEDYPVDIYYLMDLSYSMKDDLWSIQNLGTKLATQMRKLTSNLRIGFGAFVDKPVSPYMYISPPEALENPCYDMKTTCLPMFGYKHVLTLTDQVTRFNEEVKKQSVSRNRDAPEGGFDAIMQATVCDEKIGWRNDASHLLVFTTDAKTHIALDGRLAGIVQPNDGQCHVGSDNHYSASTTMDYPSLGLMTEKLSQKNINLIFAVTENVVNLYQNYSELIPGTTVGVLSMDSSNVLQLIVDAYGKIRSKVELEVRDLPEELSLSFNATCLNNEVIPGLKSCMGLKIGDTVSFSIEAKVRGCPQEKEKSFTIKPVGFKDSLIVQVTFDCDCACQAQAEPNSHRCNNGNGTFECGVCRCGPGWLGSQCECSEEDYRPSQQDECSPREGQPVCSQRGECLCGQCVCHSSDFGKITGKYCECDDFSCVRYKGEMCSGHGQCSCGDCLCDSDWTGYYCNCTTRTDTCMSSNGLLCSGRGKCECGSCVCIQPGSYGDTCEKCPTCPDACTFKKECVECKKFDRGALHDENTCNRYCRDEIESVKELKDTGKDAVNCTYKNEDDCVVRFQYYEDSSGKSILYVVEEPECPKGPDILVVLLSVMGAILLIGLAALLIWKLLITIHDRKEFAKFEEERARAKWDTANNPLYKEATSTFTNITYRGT

Consider `O=C(NCC=Cc1cn(C2CC(O)C(COP(=O)(O)OP(=O)(O)OP(=O)(O)O)O2)c(=O)[nH]c1=O)C(F)(F)F` (centres unmarked) [triphosphate of 23], for which, at Taq DNA polymerase, the “incorporation by Taq DNA polymerase” value is on record as “not an efficient polymerase substrate”.

In general, IC50 refers to the concentration at which inhibition is half-maximal. “GRGDSPK [linear peptide, benchmark αvβ3 integrin antagonist]”: on αvβ3 integrin receptor, the IC50 is 210 nM.
